Legend:
Experiment in all cases: Determination of MIC values (BHI broth, 96 well microtiter plate)
Assay type in all cases: cell-based
[1] = test system: Streptococcus pneumoniae; conditions: Streptococcus pneumoniae; BHI broth, 37° C., overnight (about 16 hours); read-out: MIC S. pneu
Summary of the method: (§1)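 Organisms are grown in BHI at 37° C (about 7% CO2) to a 0.5 McFarland standard, then inoculated at 10^5 to 10^6 cells/mL into BHI holding twofold compound dilutions (final 25 down to 0.39 µg/mL, DMSO-diluted). After overnight incubation, MIC is the lowest concentration lacking growth.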

[2] = test system: methicillin-resistant Staphylococcus aureus (MRSA); conditions: Staphylococcus aureus, MRSA, 16 h, BHI broth, 37° C., overnight (about 16 hours); read-out: MIC MRSA
Summary of the method: as §1

[3] = test system: vancomycin-resistant Enterococcus spp. (VRE); conditions: Enterococcus, VRE, 16 h, BHI broth, 37° C., overnight (about 16 hours); read-out: MIC VREF
Summary of the method: as §1

| SMILES | MIC [1] | MIC [2] | MIC [3] |
| --- | --- | --- | --- |
| NCC1CCCC(CNC(=O)c2cc(-c3c[nH]c4ccc(Br)cc34)nc3ccc(I)cc23)C1 (stereo not drawn) [Example 115] | < 7 µg/mL | < 7 µg/mL | < 7 µg/mL |
| NCc1cccc(CNC(=O)c2cc(-c3c[nH]c4ccc(Br)cc34)nc3ccc(I)cc23)c1 [Example 116] | < 7 µg/mL | < 7 µg/mL | < 7 µg/mL |
| O=C(c1cc(-c2c[nH]c3ccc(Br)cc23)nc2ccc(I)cc12)N1CCCNCC1 [Example 117] | < 7 µg/mL | < 7 µg/mL | < 7 µg/mL |
| Cc1cc2nc(-c3c[nH]c4ccc(Br)cc34)cc(C(=O)NCc3ccc(CN)cc3)c2cc1C [Example 118] | < 7 µg/mL | < 7 µg/mL | < 7 µg/mL |
| Cn1cc(-c2cc(C(=O)NCc3ccc(CN)cc3)c3ccccc3n2)c2cc(Br)ccc21 [Example 119] | < 7 µg/mL | < 7 µg/mL | < 25 µg/mL |
| Cc1ccc2nc(-c3c[nH]c4ccc(Br)cc34)cc(C(=O)NCc3cccc(CN)c3)c2c1 [Example 122] | < 7 µg/mL | < 7 µg/mL | < 7 µg/mL |
| NCC1CCCC(CNC(=O)c2cc(-c3c[nH]c4ccc(Br)cc34)nc3ccc(Br)cc23)C1 (stereo not drawn) [Example 123] | < 7 µg/mL | < 7 µg/mL | < 7 µg/mL |
| NCC1CCC(CNC(=O)c2cc(-c3c[nH]c4ccc(Br)cc34)nc3ccc(Br)cc23)CC1 (stereo not drawn) [Example 124] | < 7 µg/mL | < 7 µg/mL | < 7 µg/mL |
| Cc1cc2nc(-c3c[nH]c4ccc(Br)cc34)cc(C(=O)NCC3CCCC(CN)C3)c2cc1C (stereo not drawn) [Example 127] | < 7 µg/mL | < 7 µg/mL | < 7 µg/mL |
| Cc1cc2nc(-c3c[nH]c4ccc(Br)cc34)cc(C(=O)NCC3CCC(CN)CC3)c2cc1C (stereo not drawn) [Example 128] | < 7 µg/mL | < 7 µg/mL | < 7 µg/mL |
| NC1CCC(NC(=O)c2cc(-c3c[nH]c4ccc(Br)cc34)nc3ccc(Cl)cc23)CC1 (stereo not drawn) [Example 131] | < 7 µg/mL | < 7 µg/mL | < 25 µg/mL |
| NCC1CCCC(CNC(=O)c2cc(-c3c[nH]c4ccc(Br)cc34)nc3ccc(Cl)cc23)C1 (stereo not drawn) [Example 132] | < 7 µg/mL | < 7 µg/mL | < 7 µg/mL |
| NCC1CCC(CNC(=O)c2cc(-c3c[nH]c4ccc(Br)cc34)nc3ccc(Cl)cc23)CC1 (stereo not drawn) [Example 133] | < 7 µg/mL | < 7 µg/mL | < 7 µg/mL |
| NCc1cccc(CNC(=O)c2cc(-c3c[nH]c4ccc(Br)cc34)nc3ccc(Cl)cc23)c1 [Example 134] | < 7 µg/mL | < 7 µg/mL | < 7 µg/mL |
| O=C(c1cc(-c2c[nH]c3ccc(Br)cc23)nc2ccc(Cl)cc12)N1CCNCC1 [Example 136] | < 7 µg/mL | < 7 µg/mL | < 7 µg/mL |
| NCc1ccc(CNC(=O)c2cc(-c3c[nH]c4ccc(Br)cc34)nc3cc(Br)ccc23)cc1 [Example 138] | < 7 µg/mL | < 7 µg/mL | < 7 µg/mL |
| NCc1ccc(CNC(=O)c2cc(-c3c[nH]c4ccc(Br)cc34)nc3c(Br)cccc23)cc1 [Example 139] | < 7 µg/mL | < 7 µg/mL | < 7 µg/mL |
| NCc1ccc(CNC(=O)c2cc(-c3c[nH]c4ccc(Br)cc34)nc3cc(Cl)ccc23)cc1 [Example 142] | < 7 µg/mL | < 7 µg/mL | < 7 µg/mL |
| NCc1ccc(CNC(=O)c2cc(-c3c[nH]c4ccc(Br)cc34)nc3c(Cl)cccc23)cc1 [Example 143] | < 7 µg/mL | < 7 µg/mL | < 7 µg/mL |
| NCc1ccc(CNC(=O)c2cc(-c3c[nH]c4ccc(Br)cc34)nc3cc4c(cc23)OCO4)cc1 [Example 144] | < 25 µg/mL | < 7 µg/mL | < 25 µg/mL |
| NCc1ccc(CNC(=O)c2cc(-c3cnc4ccccc4c3)nc3ccc(I)cc23)cc1 [Example 151] | > 25 µg/mL | > 25 µg/mL | > 25 µg/mL |

| SMILES | MIC [1] | MIC [2] | MIC [3] |
| --- | --- | --- | --- |
| Clc1ccc2nc(-c3c[nH]c4ccc(Br)cc34)ccc2c1 [Example 153] | < 7 µg/mL | < 7 µg/mL | > 25 µg/mL |
| NCc1ccc(COCc2cc(-c3c[nH]c4ccc(Br)cc34)nc3ccc(C(F)(F)F)cc23)cc1 [Example 154] | < 7 µg/mL | < 7 µg/mL | < 7 µg/mL |
| NCc1ccc(CNC(=O)c2cc(-c3c[nH]c4ccc(Br)cc34)nc3cc(Cl)c(I)cc23)cc1 [Example 158] | < 7 µg/mL | < 7 µg/mL | < 7 µg/mL |
| NCc1ccc(CNC(=O)c2cc(-c3c[nH]c4ccccc34)nc3ccc(I)cc23)cc1 [Example 159] | < 25 µg/mL | < 7 µg/mL | < 25 µg/mL |
| Cc1ccc2c(C(=O)NCc3ccc(CN)cc3)cc(-c3c[nH]c4ccc(Br)cc34)nc2c1 [Example 161] | < 7 µg/mL | < 7 µg/mL | < 7 µg/mL |
| c1ccc2nc(-c3c[nH]c4ccccc34)ccc2c1 [Example 163] | > 25 µg/mL | < 25 µg/mL | > 25 µg/mL |
| Clc1ccc2nc(-c3c[nH]c4ccccc34)ccc2c1 [Example 164] | < 7 µg/mL | < 7 µg/mL | < 5 µg/mL |
| Brc1ccc2[nH]cc(-c3ccc4ccccc4n3)c2c1 [Example 165] | < 7 µg/mL | < 7 µg/mL | < 7 µg/mL |
| Clc1ccc2[nH]cc(-c3ccc4ccccc4n3)c2c1 [Example 168] | < 7 µg/mL | < 7 µg/mL | > 25 µg/mL |
| Clc1ccc2nc(-c3c[nH]c4ccc(Cl)cc34)ccc2c1 [Example 169] | < 7 µg/mL | < 7 µg/mL | > 25 µg/mL |
| COc1ccc(NC(=O)c2cc(-c3c[nH]c4ccc(Br)cc34)nc3ccc(C(F)(F)F)cc23)cc1 [Example 170] | < 7 µg/mL | < 7 µg/mL | > 25 µg/mL |
| O=C(Nc1ccc(O)cc1)c1cc(-c2c[nH]c3ccc(Br)cc23)nc2ccc(C(F)(F)F)cc12 [Example 171] | < 7 µg/mL | < 7 µg/mL | < 7 µg/mL |
| O=C(NCc1nc2ccccc2[nH]1)c1cc(-c2c[nH]c3ccc(Br)cc23)nc2ccc(C(F)(F)F)cc12 [Example 172] | < 7 µg/mL | < 7 µg/mL | > 25 µg/mL |
| O=C(NCc1nc2ccccc2[nH]1)c1cc(-c2c[nH]c3ccc(Br)cc23)nc2ccc(I)cc12 [Example 173] | < 7 µg/mL | < 7 µg/mL | > 25 µg/mL |
| COc1ccc(NC(=O)c2cc(-c3c[nH]c4ccc(Br)cc34)nc3ccc(I)cc23)cc1 [Example 174] | < 25 µg/mL | < 7 µg/mL | > 25 µg/mL |
| O=C(Nc1ccc(O)cc1)c1cc(-c2c[nH]c3ccc(Br)cc23)nc2ccc(I)cc12 [Example 175] | < 7 µg/mL | < 7 µg/mL | < 25 µg/mL |
| Fc1ccc2[nH]cc(-c3ccc4ccccc4n3)c2c1 [Example 181] | < 7 µg/mL | < 7 µg/mL | < 25 µg/mL |
| Fc1ccc2c(-c3ccc4ccccc4n3)c[nH]c2c1 [Example 183] | > 25 µg/mL | < 25 µg/mL | > 25 µg/mL |
| c1ccc(COc2ccc3[nH]cc(-c4ccc5ccccc5n4)c3c2)cc1 [Example 184] | < 7 µg/mL | > 25 µg/mL | > 25 µg/mL |
| Fc1ccc2[nH]cc(-c3ccc4cc(Cl)ccc4n3)c2c1 [Example 191] | < 7 µg/mL | < 7 µg/mL | < 25 µg/mL |
| Clc1ccc2nc(-c3c[nH]c4ccc(OCc5ccccc5)cc34)ccc2c1 [Example 194] | < 7 µg/mL | < 7 µg/mL | > 25 µg/mL |

From patent US6376670B1, “Quinoline-indole antimicrobial agents, uses and compositions related thereto” (Sepracor Inc., priority 1997, dated 2002)
